≈ marks a conversion by molar mass, not a printed value. Calls of active or inactive are those of the source. The rule behind the calls is not given here.
How the values were obtained:
[1] = Solubility of the compound in FeSSIF; assay type: physicochemical; conditions: simulated gi fluid
[2] = Drug metabolism in human hepatocytes assessed as (S)-6-(2-chloro-3-((6-cyclopropylpyridin-3-yl)amino)phenyl)-2-imino-6-methyltetrahydropyrimidin-4(1H)-one metabolite formation; assay type: ADME, cell-based, Hepatocyte
[3] = Drug metabolism in Cynomolgus monkey hepatocytes assessed as (S)-6-(2-chloro-3-((6-cyclopropylpyridin-3-yl)amino)phenyl)-2-imino-6-methyl-3-((2S,4S)-2-methyltetrahydro-2H-pyran-4-yl)tetrahydropyrimidin-4(1H)-one metabolite formation; assay type: ADME, cell-based, Macaca fascicularis, Hepatocyte
Plasmodium falciparum [4] = test: Antimalarial activity against asexual blood stage Plasmodium falciparum 3D7 assessed as parasite growth inhibition by measuring parasitemia by LDH assay; assay type: functional, organism-based
[5] = target: Potassium voltage-gated channel subfamily A member 5 (Homo sapiens, UniProt P22460); test: Inhibition of Kv1.5 (unknown origin) by patch clamp method; assay type: toxicity
Sequence of Potassium voltage-gated channel subfamily A member 5 (P22460 whole entry): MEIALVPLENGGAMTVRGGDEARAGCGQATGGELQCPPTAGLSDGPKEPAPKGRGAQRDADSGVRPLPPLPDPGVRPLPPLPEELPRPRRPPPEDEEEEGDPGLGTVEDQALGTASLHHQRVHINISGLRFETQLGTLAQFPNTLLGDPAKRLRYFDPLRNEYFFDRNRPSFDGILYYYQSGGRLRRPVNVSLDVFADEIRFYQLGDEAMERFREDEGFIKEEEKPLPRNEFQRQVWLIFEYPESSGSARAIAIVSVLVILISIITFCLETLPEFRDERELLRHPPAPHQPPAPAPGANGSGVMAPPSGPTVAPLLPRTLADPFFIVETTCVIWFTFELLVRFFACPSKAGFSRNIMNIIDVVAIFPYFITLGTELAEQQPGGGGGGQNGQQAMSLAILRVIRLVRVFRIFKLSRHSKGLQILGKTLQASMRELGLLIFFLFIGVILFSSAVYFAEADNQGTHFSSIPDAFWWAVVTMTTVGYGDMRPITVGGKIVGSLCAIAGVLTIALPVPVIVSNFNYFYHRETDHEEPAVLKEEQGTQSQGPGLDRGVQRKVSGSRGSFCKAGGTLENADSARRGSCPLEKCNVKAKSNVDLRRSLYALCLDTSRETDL

Plasmodium berghei = test: Antimalarial activity against luciferase expressing Plasmodium berghei sporozoites infected in naive C57B/6 liver mouse model assessed as decrease in liver infection at 50 mg/kg, po administered once daily on day 8 by Giemsa staining based microscopic analysis; assay type: functional, organism-based; conditions: time 8.0 day
[6] = target: T1, A-type voltage-gated potassium channel KCND3 (Homo sapiens, UniProt Q9UK17); test: Inhibition of Kv4.3 (unknown origin) by patch clamp method; assay type: toxicity
T1 sequence (Q9UK17 whole entry): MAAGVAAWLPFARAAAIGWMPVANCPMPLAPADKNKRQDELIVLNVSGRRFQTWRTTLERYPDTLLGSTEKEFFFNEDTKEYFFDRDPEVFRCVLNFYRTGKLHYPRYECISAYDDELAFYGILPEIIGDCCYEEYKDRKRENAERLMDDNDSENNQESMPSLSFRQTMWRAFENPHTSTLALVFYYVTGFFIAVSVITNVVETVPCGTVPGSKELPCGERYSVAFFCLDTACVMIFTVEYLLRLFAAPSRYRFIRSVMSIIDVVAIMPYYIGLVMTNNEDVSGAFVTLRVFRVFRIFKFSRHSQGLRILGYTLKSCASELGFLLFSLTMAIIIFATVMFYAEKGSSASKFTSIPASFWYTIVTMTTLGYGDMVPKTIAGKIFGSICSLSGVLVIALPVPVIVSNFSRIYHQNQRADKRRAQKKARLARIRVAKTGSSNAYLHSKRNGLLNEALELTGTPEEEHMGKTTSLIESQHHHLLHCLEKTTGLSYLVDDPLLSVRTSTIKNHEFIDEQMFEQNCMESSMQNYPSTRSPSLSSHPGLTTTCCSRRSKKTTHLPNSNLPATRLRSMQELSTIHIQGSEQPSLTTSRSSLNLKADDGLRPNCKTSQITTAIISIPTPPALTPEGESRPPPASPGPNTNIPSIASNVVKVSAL

[7] = Drug metabolism in dog hepatocytes assessed as (S)-6-(2-chloro-3-((6-cyclopropylpyridin-3-yl)amino)phenyl)-2-imino-6-methyl-3-((2S,4S)-2-methyltetrahydro-2H-pyran-4-yl)tetrahydropyrimidin-4(1H)-one metabolite formation; assay type: ADME, cell-based, Canis lupus familiaris, Hepatocyte
Plasmodium falciparum [8] = test: Resistance development in asexual blood stage Plasmodium falciparum Dd2-B2 assessed as minimum inoculum of resistance at 3 times IC50 measured on day 30 using at 2 x 10^7 inoculum by SYBR dye based flow cytometry; assay type: functional, organism-based; conditions: time 30.0 day
[9] = Cardiotoxicity in anesthetized guinea-pig assessed as decrease in heart rate; assay type: toxicity, Cavia porcellus; conditions: 0.09 µM, DDE = dose-dependent effect, dose 90 nM
Plasmepsin IX = target: T2, Plasmepsin IX (Plasmodium falciparum, UniProt Q8ILG2); test: Inhibition of PMIX in Plasmodium falciparum 3D7 HA epitope
T2 sequence (Q8ILG2 whole entry): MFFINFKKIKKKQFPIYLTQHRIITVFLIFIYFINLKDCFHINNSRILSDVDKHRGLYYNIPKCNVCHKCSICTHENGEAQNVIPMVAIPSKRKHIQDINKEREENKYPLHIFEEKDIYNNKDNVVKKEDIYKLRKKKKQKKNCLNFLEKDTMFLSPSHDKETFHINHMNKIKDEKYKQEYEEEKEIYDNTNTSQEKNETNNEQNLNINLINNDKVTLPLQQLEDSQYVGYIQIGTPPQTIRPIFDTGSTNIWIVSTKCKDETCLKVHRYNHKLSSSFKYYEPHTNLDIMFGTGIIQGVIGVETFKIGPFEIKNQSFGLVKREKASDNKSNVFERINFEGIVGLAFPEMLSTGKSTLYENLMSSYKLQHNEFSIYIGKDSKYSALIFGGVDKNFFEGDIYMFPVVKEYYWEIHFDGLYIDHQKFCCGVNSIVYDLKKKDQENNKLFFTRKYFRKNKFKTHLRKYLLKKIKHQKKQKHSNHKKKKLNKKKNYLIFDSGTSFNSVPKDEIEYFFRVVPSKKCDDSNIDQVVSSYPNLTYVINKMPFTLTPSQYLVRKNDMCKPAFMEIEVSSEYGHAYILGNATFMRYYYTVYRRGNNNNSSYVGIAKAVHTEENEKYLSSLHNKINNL

Plasmodium falciparum [10] = test: Antiplasmodial activity against sensitive Plasmodium falciparum NF54 infected in human red blood cells assessed as reduction in [3H]-hypoxanthine incorporation pretreated for 48 hrs followed by [3H]-hypoxanthine addition measured after 24 hrs by scintillation counting method; assay type: functional, organism-based
[11] = Cmax in Han Wistar rat at 1000 mg/kg, po administered every other day for 7 days; assay type: ADME, organism-based; set-up: dose 1000 mg/kg, time 7 day, route po; conditions: in vivo
[12] = target: Plasmepsin X (Plasmodium falciparum (isolate 3D7)) (UniProt Q8IAS0); conditions: Expi293F GnTI-
Sequence of Plasmepsin X (Plasmodium falciparum (isolate 3D7)) (Q8IAS0 whole entry): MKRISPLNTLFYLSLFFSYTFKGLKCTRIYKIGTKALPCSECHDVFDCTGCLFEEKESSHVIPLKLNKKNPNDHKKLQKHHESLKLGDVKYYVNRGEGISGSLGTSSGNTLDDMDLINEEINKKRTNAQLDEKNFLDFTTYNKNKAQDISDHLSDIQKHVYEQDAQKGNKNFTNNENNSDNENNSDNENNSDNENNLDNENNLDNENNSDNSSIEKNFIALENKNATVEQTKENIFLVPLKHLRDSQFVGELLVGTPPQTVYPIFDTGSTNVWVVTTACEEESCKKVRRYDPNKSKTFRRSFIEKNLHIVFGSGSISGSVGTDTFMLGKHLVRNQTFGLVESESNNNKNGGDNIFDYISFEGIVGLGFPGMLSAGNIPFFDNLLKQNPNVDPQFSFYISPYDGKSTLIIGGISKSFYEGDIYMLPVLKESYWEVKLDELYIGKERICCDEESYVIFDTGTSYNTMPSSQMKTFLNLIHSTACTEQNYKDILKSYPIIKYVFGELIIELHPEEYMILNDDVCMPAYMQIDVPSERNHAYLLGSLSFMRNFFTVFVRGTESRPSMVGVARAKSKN
Description: (§1) Inhibition of Plasmodium falciparum recombinant C-terminal TEV cleavable 8his-tagged PMX by FRET assay

[13] = Cardiotoxicity in anesthetized guinea-pig assessed as QRS widening at 1600 nM; assay type: toxicity, Cavia porcellus; conditions: 1.6 µM
[14] = Toxicity in Han Wistar rat assessed as effect on auditory reflex at 250 to 1000 mg/kg, po administered every other day for 7 days; assay type: organism-based; conditions: in vivo, 168 h, dose 250-1000 mg/kg, time 7 day
Homo sapiens = species: Homo sapiens; test: Inhibition of BACE (unknown origin) at 10 uM relative to control
Plasmodium falciparum [15] = test: Antimalarial activity against Plasmodium falciparum 7G8 harbouring Pf-crt, Pf-mdrl,Pf-dhfr, Pf-dhps mutated loci assessed as inhibition of parasite growth pretreated for 48 hrs followed by [3H]-hypoxanthine addition measured after 24 hrs by scintillation counting method; assay type: functional, organism-based
[16] = Toxicity in Han Wistar rat assessed as effect on scotopic amplitude at 1000 mg/kg, po administered every other day for 7 days by ERG analysis; assay type: organism-based; conditions: in vivo, 168 h, time 7 day
Plasmodium falciparum [17] = test: Antimalarial activity against Plasmodium falciparum PH1263-C harbouring Pf-crt mutated loci assessed as inhibition of parasite growth pretreated for 48 hrs followed by [3H]-hypoxanthine addition measured after 24 hrs by scintillation counting method; assay type: functional, organism-based
[18] = Toxicity in Han Wistar rat assessed as auto-fluorescent granule accumulation in retinal epithelium at 250 to 1000 mg/kg, po administered every other day for 7 days; assay type: organism-based; conditions: in vivo, 168 h, dose 250-1000 mg/kg, time 7 day
Plasmepsin X = Plasmepsin X (Plasmodium falciparum (isolate 3D7), UniProt Q8IAS0); test: biochemical
Sequence of Plasmepsin X (Q8IAS0 whole entry): as above
Description: as §1

[19] = fCmax in Han Wistar rat at 1000 mg/kg, po administered every other day for 7 days; assay type: ADME, organism-based; conditions: in vivo, 168 h, time 7 day

For `C[C@H]1C[C@@H](N2C(=N)N[C@](C)(c3cccc(Nc4ccc(C5CC5)nc4)c3Cl)CC2=O)CCO1`, the solubility [1] was 960 µM (≈ 449 µg/mL), the Drug metabolism [2] was “Metabolite_Detected” and the Drug metabolism [3] was “Metabolite_Detected”. The IC50 (Plasmodium falciparum [4]) was 14 nM, the IC50 [5] was 5000 nM and the Activity (Plasmodium berghei) was “Active”. The IC50 [6] was 28000 nM, the Drug metabolism [7] was “Metabolite_Detected” and the Activity (Plasmodium falciparum [8]) was “Active”.
In the case of `C[C@H]1C[C@@H](N2C(=N)N[C@](C)(c3cccc(NC(=O)c4cccc(C#N)c4)c3Cl)CC2=O)CCO1`, the Activity [9] is reported as “Dde”, the IC50 (Plasmepsin IX) is reported as 142 nM and the IC50 (Plasmodium falciparum [10]) is reported as 34.6 nM. The Cmax [11] was 25000 ng/mL, the IC90 [12] was 52 nM and the Activity [13] was “Non-Toxic”. The Activity [14] was “Non-Toxic”, the inhibition (Homo sapiens) was 64% and the IC50 (Plasmodium falciparum [15]) was 24 nM. For the same compound, the Activity [16] was “Non-Toxic”, the IC50 (Plasmodium falciparum [17]) was 18 nM and the Activity [18] was “Non-Toxic”. It also gave an IC50 (Plasmepsin X) of 7 nM and a fCmax [19] of 11 µM.
